# Results from patent US20100113513A1, “QUINOLINE DERIVATIVES AS FUNGICIDES” (SYNGENTA CROP PROTECTION, INC., priority 2007, published 2010).
# System: Erysiphe graminis f.sp. tritici
# Assay: Erysiphe graminis f.sp. tritici (wheat powdery mildew) wheat leaf segment test, preventive
# Format: in vivo
# Conditions: Blumeria graminis, foliar, 96 h, wheat leaf segments, assessed four days after inoculation, read-out: control of fungal infection, Erysiphe graminis f.sp. tritici
row,SMILES,pest or weed control at 200 ppm [%]
1,"COC(Oc1cc(Br)c2ncc(Br)cc2c1)C(=O)NC(C)(C)C (stereo not drawn) [12 (99), N-tert-Butyl-2-(3,8-dibromo-quinolin-6-yloxy)-2-methoxy-acetamide]",≥ 60
2,"CCC(Oc1ccc2ncc(Br)cc2c1)C(=O)NC(C)(C)C (stereo not drawn) [12 (154), 2-(3-bromo-quinolin-6-yloxy)-N-tert-butyl-butyramide]",≥ 60
3,"COC(Oc1ccc2ncc(Br)cc2c1)C(=O)NC(C)(C)C (stereo not drawn) [12 (155), 2-(3-bromo-quinolin-6-yloxy)-N-tert-butyl-2-methoxy-acetamide]",≥ 60
4,"CCOC(Oc1ccc2ncc(Br)cc2c1)C(=O)NC(C)(C)C (stereo not drawn) [12 (156), 2-(3-Bromo-quinolin-6-yloxy)-N-tert-butyl-2-ethoxy-acetamide]",≥ 60
5,"CCC(Oc1cc(C)c2ncc(Br)cc2c1)C(=O)NC(C)(C)COC (stereo not drawn) [47 (90), 2-(3-Bromo-8-methyl-quinolin-6-yloxy)-N-(2-methoxy-1,1-dimethyl-ethyl)-butyramide]",≥ 60
6,"COCC(C)(C)NC(=O)C(OC)Oc1ccc2ncc(Br)cc2c1 (stereo not drawn) [47 (155), 2-(3-Bromo-quinolin-6-yloxy)-2-methoxy-N-(2-methoxy-1,1-dimethyl-ethyl)-acetamide]",≥ 60
7,"CCOC(Oc1ccc2ncc(Br)cc2c1)C(=O)NC(C)(C)COC (stereo not drawn) [47 (156), 2-(3-Bromo-quinolin-6-yloxy)-2-ethoxy-N-(2-methoxy-1,1-dimethyl-ethyl)-acetamide]",≥ 60
8,"CCC(Oc1ccc2ncc(Br)cc2c1)C(=O)NC(C)(C#N)COC (stereo not drawn) [52 (154), 2-(3-Bromo-quinolin-6-yloxy)-N-(1-cyano-2-methoxy-1-methyl-ethyl)-butyramide]",≥ 60
9,"COCC(C)(C#N)NC(=O)C(OC)Oc1ccc2ncc(Br)cc2c1 (stereo not drawn) [52 (155), 2-(3-Bromo-quinolin-6-yloxy)-N-(1-cyano-2-methoxy-1-methyl-ethyl)-2-methoxy-acetamide]",≥ 60
